This is an account of results in US20050164323A1, “Methods of treating asthma” (Wyeth, priority 2003, published 2005).

Holding throughout (type): biochemical
Experiment [1] deals with T1, PKC-θ KD (Homo sapiens, UniProt Q04759).
T1 construct: PKC-θ KD (amino acid residues 362 to 706) was cloned into a pET16b expression vector; hexa-histidine (C); Met-Gly (non-native N-terminal residues) (N); made in house; host or cells: E. coli BL21-DE3 (pET16b)
Put plainly: HPLC assay: thio effect with ATPγS and product inhibition with ADP. The conditions noted are these: for pattern / Ki: product inhibition; for appKm / rate: peptide1 used in assay.

Experiment [2] deals with T1, PKC-θ KD. Put plainly: coupled PK/LDH assay: steady-state kinetics, product and dead-end inhibition of PKC-θ KD. The following applies: for substrate inhibition: high peptide concentrations.
In experiment [3] the target is T1, PKC-θ KD. Put plainly: solvent viscosity studies (sucrose, Ficoll 400) on steady state kinetic parameters. The following applies: from viscosity analysis. How it is done:
Next, solvent viscosity studies were performed. Steady state kinetic parameters were determined in the buffer described above for the enzyme kinetics assays containing varied sucrose (0-35%) or Ficoll 400 (0-8%). Relative solvent viscosities (η^ref) were determined in triplicate relative to 25 mM HEPES pH 7.5, 10 mM MgCl2, 2 mM DTT and 100 mM NaCl at 25° C. using an Ostwald viscometer. Buffer with no viscogen is indicated with a superscript of 0. The coupling enzyme system was unaffected by the presence of these viscogens. Thio effect studies with ATPγS and product inhibition studies with ADP were analyzed on a Hewlett Packard series 1100 HPLC using a Phenomenex Auga […] C18 124 A^0 50 mm×4.60 […] column (00B-4299-E0). Phosphorylated peptide was separated from non-phosphorylated peptide using a gradient of 0% to 100% 20 mM phosphate pH 8.8/acetonitrile (50/50). The fluorescein-labeled peptide was detected by excitation at 485 nm and monitoring the fluorescence emission at 530 nm.
To determine if the chemical step is the lone contributor to the rate of the reaction, the effect of solvent viscosity on the steady state kinetic parameters for PKC-θ was determined. Two types of viscogens were employed in this study, the microviscogen sucrose and the macroviscogen Ficoll-400. […]

The mark [4] stands for this setting: varied peptide substrate, saturating ATP.
Where [5] appears, read: dead-end inhibition against peptide 1 at saturating ATP (AMP-PNP up to 2.0 mM).
[6] abbreviates: dead-end inhibition, varied substrate ATP, 100 mM NaCl.
Where [7] appears, read: substrate inhibition, fit to equation (2), saturating ATP, read-out: Ki peptide.
[8] abbreviates: varied substrate peptide3, saturating ATP, 100 mM NaCl, read-out: Kis.

Entries after “also recorded” stand apart in the source; their conditions may differ. Non-standard residues stand in square brackets, D forms with d. Residues, ends and D or L forms follow the SMILES beside them. pS = N[C@@H](COP(=O)(O)O)C(=O)O Some results are limits rather than exact numbers.

T1 sequence (Q04759 with tags, fused parts or gaps): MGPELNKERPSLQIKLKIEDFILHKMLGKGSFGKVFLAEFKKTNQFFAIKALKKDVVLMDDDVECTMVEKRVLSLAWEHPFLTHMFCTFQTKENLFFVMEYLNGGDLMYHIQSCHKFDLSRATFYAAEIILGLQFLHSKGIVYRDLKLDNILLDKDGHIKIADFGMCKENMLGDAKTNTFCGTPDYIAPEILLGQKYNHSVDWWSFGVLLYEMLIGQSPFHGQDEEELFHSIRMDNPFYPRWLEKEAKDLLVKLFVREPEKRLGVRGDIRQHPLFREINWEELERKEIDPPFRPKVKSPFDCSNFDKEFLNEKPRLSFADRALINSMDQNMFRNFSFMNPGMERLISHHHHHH

Regarding `Nc1ncnc2c1ncn2[C@@H]1O[C@H](COP(=O)(O)OP(=O)(O)O)[C@@H](O)[C@H]1O` [ADP], the “inhibition pattern in words” value is “competitive inhibitor; also recorded: competitive pattern” against PKC-θ KD [1] (against ATP at saturating peptide 1), “non-competitive pattern” at PKC-θ KD [1] (against peptide 1 at non-saturating ATP (0.1 mM)) and “no inhibition observed” at PKC-θ KD [1] (against peptide 1 at saturating ATP). Besides, the pattern result was “c (c, competitive)” on PKC-θ KD [1] (varied substrate ATP, saturating peptide 1, 100 mM NaCl) and “nc (nc, noncompetitive)” at PKC-θ KD [1] (varied substrate peptide1, ATP held at 0.1 mM, 100 mM NaCl). Also, the Ki came to 291 µM on PKC-θ KD [1] (varied substrate ATP, saturating peptide 1, 100 mM NaCl, read-out: Kis); 200 µM on PKC-θ KD [1] (varied substrate peptide1, ATP held at 0.1 mM, 100 mM NaCl, read-out: Kii); 494 µM on PKC-θ KD [1] (varied substrate peptide1, ATP held at 0.1 mM, 100 mM NaCl, read-out: Kis).

`Nc1ncnc2c1ncn2[C@@H]1O[C@H](COP(=O)(O)OP(=O)(O)OP(=O)(O)O)[C@@H](O)[C@H]1O` [ATP, adenosine triphosphate]: the “appKm ATP” value at PKC-θ KD [2] (0 mM NaCl, 0.2 mM peptide1) came to 25 ± 5 µM. The kcat on PKC-θ KD [2] (100 mM NaCl, fit to equation (1)) is 22 ± 1 s⁻¹; on PKC-θ KD [2] (250 mM NaCl, fit to equation (1)), 24 ± 1 s⁻¹; on PKC-θ KD [2] (varied ATP, peptide1 present), 18 s⁻¹. Also, the “ATP hydrolysis slower in absence of peptide substrate than when peptide is present” value on PKC-θ KD [2] (no peptide vs peptide present) is reported as 110 times.

Regarding “LKRSLSEM [peptide3, substrate derived from the phosphorylation site in serum response factor]”, the substrate inhibition entry in the experiment with PKC-θ KD [2] is “not observed”. The appKm with PKC-θ KD [2] (setting [4]) is 420 ± 21 µM; with PKC-θ KD [2] (varied peptide substrate, saturating ATP, listed as Peptide 3), 420 µM. Besides, the kcat with PKC-θ KD [2] (setting [4]) was found to be 21 ± 1 s⁻¹. Besides, in the experiment with PKC-θ KD [3], the stickiness of substrate result is “not sticky”.

For `Nc1ncnc2c1ncn2[C@@H]1O[C@H](COP(=O)(O)OP(=O)(O)OP(O)(O)=S)[C@@H](O)[C@H]1O` [ATPγS], on PKC-θ KD [1] (100 mM NaCl), the “ratio ATP/ATPγS of appKm” value was found to be 2.1, the “ratio ATP/ATPγS of rate (thio effect)” value is 112, the appKm is 120 ± 9 µM and the rate was 1.6 ± 0.1 peak area/(reaction time in minutes)([enzyme] nM). In addition, at PKC-θ KD [1] (250 mM NaCl), the “ratio ATP/ATPγS of appKm” value came to 1.8, the “ratio ATP/ATPγS of rate (thio effect)” value turned out to be 146, the appKm was 130 ± 5 µM and the rate is 1.3 ± 0.1 peak area/(reaction time in minutes)([enzyme] nM).

As to `Nc1ncnc2c1ncn2[C@@H]1O[C@H](COP(=O)(O)OP(=O)(O)NP(=O)(O)O)[C@@H](O)[C@H]1O` [AMP-PNP], the “inhibition pattern in words” value on PKC-θ KD [2] (dead-end inhibition against ATP) is “competitive inhibitor”; against PKC-θ KD [2] (setting [5]), “no observed inhibition”. On PKC-θ KD [2] (setting [6]), the pattern result is given as “c (c, competitive)”. Besides, the Ki on PKC-θ KD [2] (dead-end inhibition, varied substrate ATP, 100 mM NaCl, read-out: Kis) is 228 µM.

Turning to `CC(C)C[C@H](NC(=O)[C@H](CO)NC(=O)CNC(=O)[C@H](CCCCN)NC(=O)[C@H](CCCNC(=N)N)NC(=O)[C@H](C)NC(=O)[C@H](Cc1ccccc1)NC(=O)[C@@H](N)CCCNC(=N)N)C(=O)N[C@@H](CCCNC(=N)N)C(=O)N[C@@H](CCC(N)=O)C(=O)N[C@@H](CCCCN)C(=O)N[C@@H](CC(N)=O)C(=O)N[C@H](C(=O)O)C(C)C` [peptide2] (H-RFARKGSLRQKNV-OH; N-terminus and C-terminus assumed), the substrate inhibition result at PKC-θ KD [2] is “observed”. At PKC-θ KD [2] (setting [7]), the Ki stood at 306 ± 57 µM. Also, the appKm at PKC-θ KD [2] (setting [4]) was 4.3 ± 0.8 µM; on PKC-θ KD [2] (varied peptide substrate, saturating ATP, listed as peptide 2), 4.3 µM.

Regarding `CC(C)C[C@H](NC(=O)[C@H](C)NC(=O)CNC(=O)[C@H](CCCCN)NC(=O)[C@H](CCCNC(=N)N)NC(=O)[C@H](C)NC(=O)[C@@H](N)Cc1ccccc1)C(=O)N[C@@H](CCCNC(=N)N)C(=O)N[C@@H](CCC(N)=O)C(=O)O` [peptide5] (H-FARKGALRQ-OH; N-terminus and C-terminus assumed), the “inhibition pattern in words” value against PKC-θ KD [2] (against peptide 3 at saturating ATP) is “competitive inhibitor”; against PKC-θ KD [2] (dead-end inhibition against ATP, listed as Peptide 5), “uncompetitive inhibitor”; against PKC-θ KD [2] (dead-end inhibition against ATP, listed as peptide 5), “un-competitive”; on PKC-θ KD [2] (setting [5]), “competitive inhibitor”. Moreover, the pattern result is listed as “uc (uc, uncompetitive)” at PKC-θ KD [2] (setting [6]); “c (c, competitive)” at PKC-θ KD [2] (dead-end inhibition, varied substrate peptide1, saturating ATP, 100 mM NaCl); “c (c, competitive)” on PKC-θ KD [2] (varied substrate peptide3, saturating ATP, 100 mM NaCl). Further, the Ki came out at 1100 µM on PKC-θ KD [2] (dead-end inhibition, varied substrate ATP, 100 mM NaCl, read-out: Kii); 10 µM at PKC-θ KD [2] (dead-end inhibition, varied substrate peptide1, saturating ATP, 100 mM NaCl, read-out: Kis); 4.4 µM at PKC-θ KD [2] (setting [8]).

In the case of `CC(C)C[C@H](NC(=O)[C@H](COP(=O)(O)O)NC(=O)CNC(=O)[C@H](CCCCN)NC(=O)[C@H](CCCNC(=N)N)NC(=O)[C@H](C)NC(=O)[C@@H](N)Cc1ccccc1)C(=O)N[C@@H](CCCNC(=N)N)C(=O)N[C@@H](CCC(N)=O)C(=O)O` [phosphopeptide1] (H-FARKG[pS]LRQ-OH), the Ki at PKC-θ KD [2] (varied substrate ATP, peptide3 held at 0.5 mM, 100 mM NaCl, read-out: Kii) stood at 1600 µM; at PKC-θ KD [2] (varied substrate peptide3, ATP held at 0.1 mM, 100 mM NaCl, read-out: Kii), 2000 µM; at PKC-θ KD [2] (varied substrate peptide3, saturating ATP, 100 mM NaCl, read-out: Kii), 1200 µM; on PKC-θ KD [2] (setting [8]), 1700 µM.

Take `CC(C)C[C@H](NC(=O)[C@H](CO)NC(=O)CNC(=O)[C@H](CCCCN)NC(=O)[C@H](CCCNC(=N)N)NC(=O)[C@H](C)NC(=O)[C@@H](N)Cc1ccccc1)C(=O)N[C@@H](CCCNC(=N)N)C(=O)N[C@@H](CCC(N)=O)C(=O)O` [peptide1] (H-FARKGSLRQ-OH): the Ki was 129 µM on PKC-θ KD [2] (0 mM NaCl, read-out: substrate inhibition); 201 ± 85 µM on PKC-θ KD [2] (50 mM NaCl, substrate inhibition, read-out: Ki peptide1); greater than 2000 µM on PKC-θ KD [2] (100 mM NaCl, substrate inhibition, read-out: Ki peptide1); greater than 2000 µM at PKC-θ KD [2] (setting [7]).

Regarding “RTPKLARQASIELPSM [peptide4, substrate derived from the phosphorylation site in lymphocyte-specific protein-1]”, the substrate inhibition entry with PKC-θ KD [2] is “not observed”. Moreover, in the experiment with PKC-θ KD [2] (setting [4]), the appKm came to 240 ± 16 µM and the kcat worked out at 14 ± 1 s⁻¹. Moreover, the appKm with PKC-θ KD [2] (varied peptide substrate, saturating ATP, listed as peptide 4) came to 240 µM.

In general, kcat refers to the number of substrate molecules converted per active site and unit of time at saturation.
